What was measured:
human GPR52 = biological target: T1, human GPR52 (Homo sapiens, UniProt Q9Y2T5); assay: Increase of intracellular cAMP concentration in human GPR52-expressing CHO cell (AlphaScreen cAMP assay); assay type: cell-based; conditions: test compound 10 µm, 37°C, 30 min, human GPR52-expressing CHO(dhfr-) cells, 100% = cAMP with 1 µM N-(2-hydroxyethyl)-3-[2-[3-(trifluoromethyl)benzyl]-1-benzofuran-4-yl]benzamide, 0% = DMSO; for activation at 10 µM: 0.5 h, read-out: GPR52 agonist activity (%)
T1 construct: expressed in transfected cells; host or cells: CHO(dhfr-) cells
Procedure, shortened: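 CHO(dhfr-) cells expressing human GPR52 (1×10^4) incubated 30 min at 37°C with compound ([…]) in HBSS, 0.5% BSA, 100 µM IBMX, 100 µM Ro20-1724, 5 mM HEPES pH 7.55. cAMP read by AlphaScreen; 100% set by 1 µM reference benzamide agonist, 0% by DMSO.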

[1] = test system: methamphetamine-induced locomotor hyperactivity in mice; assay: Inhibition test of methamphetamine-induced locomotor hyperactivity; assay type: in vivo; conditions: male ICR mice, test compound 30 mg/kg body weight orally, methamphetamine 2 mg/kg body weight subcutaneously 60 min later; relative to vehicle treatment group
Method: Inhibition test of methamphetamine-induced locomotor hyperactivity
The compound of the present invention can be evaluated by assessing its capacity to inhibit methamphetamine-induced locomotor hyperactivity in mice. The method of Okuyama et al (Life Science, Vol. 65, p. 2109-2125 (1999)) was modified and used for testing the inhibition of methamphetamine-induced locomotor hyperactivity.
Locomotor activity was measured using a 32-channel locomotor activity measurement device MDC-LT (BrainScience Idea Co., Ltd.), which emits infrared beams from the top of a cage (30 cm x 40 cm x 20 cm). 6- to 8-Week-old male ICR mice were acclimated for at least 45 min in the measurement cages, and then either test compound (30 mg/kg body weight) dissolved in vehicle (0.5% aqueous methylcellulose solution) or the vehicle alone was orally administered to the laboratory animals. This oral administration was followed 60 min later by subcutaneous administration of methamphetamine (2 mg/kg body weight).
The number of times the laboratory animals passed through the infrared beams emitted inside the measurement cages in 150 min after administration of the test compound or vehicle was counted to quantify locomotor activity. The methamphetamine-induced locomotor hyperactivity inhibition rate (activity inhibition rate (%)) was calculated by the following equation. Activityinhibitionrate(%) = {1-(locomotoractivityoftestcompoundtreatmentgroupaftertreatmentwithmethamphetamine÷locomotoractivityofvehicletreatmentgroupaftertreatmentwithmethamphetamine)}x100 [formula]

T1 sequence (Q9Y2T5 whole entry): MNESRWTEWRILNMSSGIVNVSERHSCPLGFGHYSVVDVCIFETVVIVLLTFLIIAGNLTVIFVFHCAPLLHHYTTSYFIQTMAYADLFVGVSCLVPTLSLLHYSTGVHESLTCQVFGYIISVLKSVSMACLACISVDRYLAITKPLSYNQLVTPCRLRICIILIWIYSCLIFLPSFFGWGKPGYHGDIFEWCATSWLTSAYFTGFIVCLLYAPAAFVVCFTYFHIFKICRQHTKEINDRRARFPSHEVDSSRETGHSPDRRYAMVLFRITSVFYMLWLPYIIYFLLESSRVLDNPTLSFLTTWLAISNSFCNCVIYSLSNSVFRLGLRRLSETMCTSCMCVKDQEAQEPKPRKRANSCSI

Row | Structure (SMILES) | activation at 10 µM (human GPR52) [%] | motor activity suppression rate (%) [1] [%] | GPR52 agonist activity (%) (human GPR52)
1 | CCCn1nccc1C(=O)Nc1sc(Cc2cc(F)cc(Cl)c2)nc1C [Example 153, N-[2-(3-chloro-5-fluorobenzyl)-4-methyl-1,3-thiazol-5-yl]-1-propyl-1H-pyrazole-5-carboxamide] | 72 | 39 | –
2 | Cc1nc(Cc2cc(F)cc(Cl)c2)sc1NC(=O)c1ccnn1C [Example 145, N-[2-(3-chloro-5-fluorobenzyl)-4-methyl-1,3-thiazol-5-yl]-1-methyl-1H-pyrazole-5-carboxamide] | 95 | 47 | –
3 | CCn1nccc1C(=O)Nc1sc(Cc2cc(F)cc(Cl)c2)nc1C [Example 148, N-[2-(3-chloro-5-fluorobenzyl)-4-methyl-1,3-thiazol-5-yl]-1-ethyl-1H-pyrazole-5-carboxamide] | 76 | 67 | –
4 | Cc1nn(C)cc1C(=O)Nc1sc(Cc2cc(F)cc(Cl)c2)nc1C [Example 146, N-[2-(3-chloro-5-fluorobenzyl)-4-methyl-1,3-thiazol-5-yl]-1,3-dimethyl-1H-pyrazole-4-carboxamide] | 84 | 42 | –
5 | Cc1nc(Cc2cccc(C(F)(F)F)c2)sc1NC(=O)c1ccnn1C [Example 3, 1-methyl-N-{4-methyl-2-[3-(trifluoromethyl)benzyl]-1,3-thiazol-5-yl}-1H-pyrazole-5-carboxamide] | – | 32 | 81

Reference: patent EP2530078A1, “THIAZOLE DERIVATIVE” (Takeda Pharmaceutical Company Limited, priority 2010, dated 2011)
